# Reference: US4656249A, “Peptides with relaxin activity” (Howard Florey Institute of Experimental Physiology and …, priority 1982, dated 1987)
# Positions of bridges follow the written chain, without caps; N, C: chain ends. Residues, ends and D or L forms follow the SMILES beside them. Chains are numbered I, II in the order given. No end group written: not given here.
# Experiments:
# [1] = tested on: rat uterine contractility; experiment: rat uterine contractility assay (bioassay of recombined relaxin peptides); assay type: cell-based; details: for Recombination Yield (by BIOASSAY), actual combination yield based on the B chain: combination of A and B chains, yield measured by bioassay; for Recombination Yield (by BIOASSAY), recalculated on the basis of 100% yield for the recombined natural A22 and B28 chains: relative to recombined natural A22 + B28 = 100%
# Description: The recombination of the relaxin peptide chains was monitored by HPLC and radioimmunoassay using an antibody raised to native porcine relaxin A22B29 and I125 Bolton-Hunter labelled A22B29 tracer (16). The biological activity of the recombined products was assessed using the rat uterine contractility assay (18).
# The biological activity of the synthetic relaxin peptides was tested in the rat uterine contractility assay (18).
# [2] = solubility behaviour of relaxin B chain peptides in aqueous solution; assay type: physicochemical; details: crude synthetic B chain
# Text: We have carried out research into the chemical synthesis of relaxin and its structural analogues as part of a systematic study of the structure-function relationships in the hormone molecule. The purified separate chains of pig relaxin have been obtained in approximately 10% yield (based on crude). The major impurities in the synthetic peptides appear to have arisen through side-reactions of the cysteine residues occurring during the HF cleavage step. In more recent syntheses improved yields have been obtained using the HF stable S-ethyl mercapto protecting group for cysteine. […] Column chromatography on Sephadex, cellulose, polyamide or polystyrene resins results in virtually a complete loss of peptide by irreversible absorption (16). These properties have made purification of synthetic relaxin B chain peptides and their coupling to A chain particularly difficult.
# As shown by FIG. 3(c), the CD spectra indicate that shortening to 25 residues results in a change of from the beta-configuration to an unordered conformation. This conformational change is reflected in an enhanced solubility of the peptide in aqueous solution, a loss of the adsorptive behaviour and an improvement in the combination yield with the A chain. Using the above-described method the combination yield rises to 10%. […]
compound,measurement,setting,value
"CC[C@H](C)[C@@H]1NC(=O)[C@H](CC(=O)O)NC(=O)[C@H](CCCCN)NC(=O)[C@H](CCCNC(=N)N)NC(=O)[C@H]([C@@H](C)CC)NC(=O)[C@@H]2CSSC[C@H](NC(=O)[C@H](CCCCN)NC(=O)[C@H](CCC(=O)O)NC(=O)[C@H](CO)NC(=O)[C@@H](N)CC(C)C)C(=O)N[C@@H](CSSC[C@H](NC(=O)[C@H](C)NC(=O)[C@H](CCCCN)NC(=O)[C@@H](NC(=O)[C@H](Cc3ccccc3)NC(=O)[C@H](CC(=O)O)NC(=O)[C@H](CC(N)=O)NC(C)=O)[C@@H](C)CC)C(=O)NCC(=O)N[C@@H](CCCNC(=N)N)C(=O)N[C@@H](CCC(=O)O)C(=O)N[C@@H](CC(C)C)C(=O)N[C@@H](C(C)C)C(=O)N[C@@H](CCCNC(=N)N)C(=O)N[C@@H](CC(C)C)C(=O)N[C@@H](Cc3c[nH]c4ccccc34)C(=O)N[C@@H](C(C)C)C(=O)N[C@@H](CCC(=O)O)C(=O)N[C@@H]([C@@H](C)CC)C(=O)N[C@H](C(=O)NCC(N)=O)CSSC[C@@H](C(=O)O)NC(=O)[C@H](CC(C)C)NC(=O)[C@H](CCCNC(=N)N)NC(=O)[C@H](C)NC1=O)C(=O)N[C@@H](CCC(N)=O)C(=O)N[C@@H](C(C)C)C(=O)NCC(=O)N2 [SA (4-22) SB[N--acetyl](4-23)NH2] (I: Ac-NDFIKACGRELVRLWVEICG-NH2 / II: H-LSEKCCQVGCIRKDIARLC-OH; disulfide I:7-II:6, I:19-II:19, II:5-II:10)","Recombination Yield (by BIOASSAY), actual combination yield based on the B chain",[1],1.3%
same,"Recombination Yield (by BIOASSAY), recalculated on the basis of 100% yield for the recombined natural A22 and B28 chains",[1],5%
B(1-29): synthetic porcine relaxin B chain of 29 residues (B chain of CMa'),pH at which the peptide is soluble,[2],> 5.5
"I: RMTLSEKCCQVGCIRKDIARLC / II: Ac-NDFIKACGRELVRLWVEICG-NH2 (disulfide I:8-I:13, I:9-II:7, I:22-II:19) [SA (1-22) SB[N--acetyl](4-23)NH2]","Recombination Yield (by BIOASSAY), actual combination yield based on the B chain",[1],2.4%
same,"Recombination Yield (by BIOASSAY), recalculated on the basis of 100% yield for the recombined natural A22 and B28 chains",[1],10%
